Measured values from PubChem BioAssay AID264 (DTP/NCI, 2004).
Inconclusive results are not listed.

Tested on: nude mice, LX-1 lung xenograft intrarenal, tumor weight T/C
Assay: NCI In Vivo Anticancer Drug Screen. Data for tumor model Human Lung LX-1 Xenograft (intrarenal inoculation) in NU/NU Swiss (nude) mice
Conditions: endpoint: mean tumor weight change, higher = larger tumour
Protocol: The antitumor activity of compounds was measured in mice bearing transplantable tumors. Survival or tumor size were measured and the results are expressed as the measurement made in the treated group (T) divided by the measurement made in the vehicle treated control group (C). The tumor model used in this assay is Human Lung LX-1 Xenograft (intrarenal inoculation) in NU/NU Swiss (nude) mice

[1] = dose: 100.0 mg/kg/injection, schedule: Q04DX003 (sc), vehicle: saline with Tween-80
[2] = dose: 200.0 mg/kg/injection, schedule: Q04DX003 (sc), vehicle: saline with Tween-80
[3] = dose: 400.0 mg/kg/injection, schedule: Q04DX003 (sc), vehicle: saline with Tween-80
[4] = dose: 12.5 mg/kg/injection, schedule: Q01DX010 (sc), vehicle: saline with Tween-80
[5] = dose: 25.0 mg/kg/injection, schedule: Q01DX010 (sc), vehicle: saline with Tween-80
[6] = dose: 50.0 mg/kg/injection, schedule: Q01DX010 (sc), vehicle: saline with Tween-80
[7] = dose: 300.0 mg/kg/injection, schedule: Q04DX003 (sc), vehicle: Klucel (hydroxypropylcellulose) (HPC)
[8] = dose: 600.0 mg/kg/injection, schedule: Q04DX003 (sc), vehicle: Klucel (hydroxypropylcellulose) (HPC)
[9] = dose: 1200.0 mg/kg/injection, schedule: Q04DX003 (sc), vehicle: Klucel (hydroxypropylcellulose) (HPC)
[10] = dose: 2400.0 mg/kg/injection, schedule: Q04DX003 (sc), vehicle: Klucel (hydroxypropylcellulose) (HPC)

COc1cc(C(C)(C)C)cc(OC)c1C(O)(c1c(OC)cc(C(C)(C)C)cc1OC)c1c(OC)cc(C(C)(C)C)cc1OC
T/C [1]: 91 % of control | T/C [2]: 68 % of control | T/C [3]: 98 % of control | T/C (dose: 800.0 mg/kg/injection, schedule: Q04DX003 (sc), vehicle: saline with Tween-80): 86 % of control

CCC1CN2C(=N1)c1ccccc1-c1cc(Cl)ccc12 (centres undefined)
T/C [4]: 54 % of control | T/C [5]: 60 % of control | T/C [6]: 107 % of control

COC1=C2C[C@@H](C)C[C@@H](OC)[C@@H](O)[C@H](C)/C=C(\C)[C@@H](OC(N)=O)[C@H](OC)/C=C\C=C(/C)C(=O)NC(=CC1=O)C2=O
T/C (dose: 1.0 mg/kg/injection, schedule: Q04DX003 (sc), vehicle: saline): 77 % of control | T/C (dose: 2.0 mg/kg/injection, schedule: Q04DX003 (sc), vehicle: saline): 57 % of control | T/C (dose: 4.0 mg/kg/injection, schedule: Q04DX003 (sc), vehicle: saline): 104 % of control | T/C (dose: 8.0 mg/kg/injection, schedule: Q04DX003 (sc), vehicle: saline): 81 % of control

Cc1ccc2c(c1)N=C(Nc1ccccc1)N=S2(C)=O (centres undefined)
T/C [1]: 101 % of control | T/C [2]: 90 % of control | T/C [3]: 97 % of control

COC(=O)Nc1nc2ccc(SC)cc2c(=O)[nH]1
T/C [7]: 93 % of control | T/C [8]: 93 % of control | T/C [9]: 95 % of control | T/C [10]: 92 % of control

Clc1ccc(CN2COc3c(ccc4cccnc34)C2)cc1Cl
T/C (dose: 100.0 mg/kg/injection, schedule: Q01DX010 (sc), vehicle: saline with Tween-80): 110 % of control | T/C (dose: 200.0 mg/kg/injection, schedule: Q01DX010 (sc), vehicle: saline with Tween-80): 87 % of control | T/C (dose: 400.0 mg/kg/injection, schedule: Q01DX010 (sc), vehicle: saline with Tween-80): 97 % of control | T/C (dose: 800.0 mg/kg/injection, schedule: Q01DX010 (sc), vehicle: saline with Tween-80): 110 % of control

CCc1c(CC(=O)O)c2cc(C)ccc2n1Cc1ccc(Cl)cc1
T/C [7]: 123 % of control | T/C [8]: 82 % of control | T/C [9]: 92 % of control | T/C [10]: 50 % of control

CCOC(=O)c1[nH]c2cccc3c2c1CC(Br)C3=O (centres undefined)
T/C (dose: 300.0 mg/kg/injection, schedule: Q04DX003 (sc), vehicle: saline with Tween-80): 87 % of control | T/C (dose: 600.0 mg/kg/injection, schedule: Q04DX003 (sc), vehicle: saline with Tween-80): 88 % of control | T/C (dose: 1200.0 mg/kg/injection, schedule: Q04DX003 (sc), vehicle: saline with Tween-80): 84 % of control | T/C (dose: 2400.0 mg/kg/injection, schedule: Q04DX003 (sc), vehicle: saline with Tween-80): 67 % of control

CC(C)(C)c1ccc(CN2CCN(C(c3ccccc3)c3ccc(Cl)cc3)CC2)cc1 (centres undefined)
T/C (dose: 37.5 mg/kg/injection, schedule: Q04DX003 (sc), vehicle: Klucel (hydroxypropylcellulose) (HPC)): 79 % of control | T/C (dose: 75.0 mg/kg/injection, schedule: Q04DX003 (sc), vehicle: Klucel (hydroxypropylcellulose) (HPC)): 63 % of control | T/C (dose: 150.0 mg/kg/injection, schedule: Q04DX003 (sc), vehicle: Klucel (hydroxypropylcellulose) (HPC)): 71 % of control | T/C [8]: 63 % of control | T/C [9]: 78 % of control | T/C [10]: 62 % of control

CCOC(=O)C(CC(C)C)NC(=O)C(Cc1ccc(N(CCCl)CCCl)cc1)NC(C)=O (centres undefined)
T/C [4]: 51 % of control | T/C [5]: 37 % of control | T/C [6]: 28 % of control
